Results on 26 molecules are retold here after ChEMBL document CHEMBL4765408, “Design and synthesis of benzylidenecyclohexenones as TrxR inhibitors displaying high anticancer activity and inducing ROS, apoptosis, and autophagy” (Eur J Med Chem, 2020).

Molecules are shown by their SMILES. Active and inactive are the calls of the source. No cut-off for these calls is given here. Some results are limits rather than exact numbers.

One experiment concerns MCF7. In words: Antiproliferative activity against human MCF7 cells after 72 hrs by sulforhodamine B assay. It is filed as functional, cell-based. The following applies: MCF7, 72 h. In general terms: The SRB assay estimates cell density from bound dye.
A further experiment deals with A549. In words: Antiproliferative activity against human A549 cells after 72 hrs by sulforhodamine B assay. To be noted: A549, 72 h. It counts as functional, cell-based.
For experiment [1], the system named is MDA-MB-231. In words: Antiproliferative activity against human MDA-MB-231 cells after 72 hrs by sulforhodamine B assay. It counts as functional, cell-based. The following applies: MDA-MB-231, 72 h.
Experiment [2] can be described thus: Antiproliferative activity against human KB-VIN cells after 72 hrs by sulforhodamine B assay. The following applies: KBVIN. It is filed as functional, cell-based.
In the next experiment the test system is KB. In words: Antiproliferative activity against human KB cells after 72 hrs by sulforhodamine B assay. It is filed as functional, cell-based.
The test system of experiment [3] is MDA-MB-231. In words: Induction of reactive oxygen species generation in human MDA-MB-231 cells measured after 24 hrs by DCFH-DA probe based flow cytometry. It is filed as functional, cell-based. Background: A flow cytometer gives signals particle by particle.
The nature of experiment [4]: Inhibition of TrxR in human MDA-MB-231 cells measured after 72 hrs by colorimetric method. It is filed as cell-based.
Experiment [5] is described as follows: Selectivity ratio of IC50 for human A549 cells to IC50 for human MDA-MB-231 cells. It is filed as functional.

Consider `CCOc1ccc(/C=C2\CCC=CC2=O)cc1OC`, for which the IC50 in the experiment with MCF7 amounted to 3.95 µM; with A549, 3.64 µM; in the experiment on MDA-MB-231 [1] it was 600 nM; in experiment [2], 4.8 µM; in the experiment on KB, 1280 nM.
Taken in the same sequence, the figures for `COc1cc(/C=C2\CCC=CC2=O)cc(OC)c1O` were 2.18 µM, 1.54 µM, 1610 nM, 3.1 µM and 1520 nM.
Turning to `COc1cc(/C=C2\CN(C(=O)OCc3ccccc3)C=CC2=O)cc(OC)c1OC`, the concentration for half-maximal inhibition (IC50) in the experiment with MCF7 was greater than 25 µM; with A549 it was 21.3 µM; with MDA-MB-231 [1], 24200 nM.
On to `O=C1C=CCC/C1=C\c1cccc(OC(F)(F)F)c1`, for which the 50% inhibitory concentration (IC50) with MDA-MB-231 [1] stood at 820 nM.
Consider `COc1cccc(/C=C2\CCC=CC2=O)c1`, for which the IC50 in the experiment with MCF7 came to 2.03 µM; in the experiment with A549 it was 1.48 µM; in the experiment on MDA-MB-231 [1], 1060 nM; in experiment [2], 2.57 µM; with KB, 1550 nM.
With `O=C1C=CCC/C1=C\c1cccnc1`, the IC50 amounted to 2.03 µM in the experiment with MCF7; 1.51 µM in the experiment with A549; 1050 nM with MDA-MB-231 [1]; 2.81 µM in experiment [2]; 1520 nM in the experiment with KB.
Consider `COc1ccc(/C=C2\CCC=CC2=O)cc1[N+](=O)[O-]`, for which the half-inhibitory concentration (IC50) with MCF7 is 1.68 µM; in the experiment with A549, 1.48 µM; in the experiment with MDA-MB-231 [1], 590 nM; in experiment [4], 630 nM; in experiment [2] it was 1.63 µM; with KB it was 1360 nM. The outcome in the experiment on MDA-MB-231 [3] was Active.
Consider `Cn1cc(/C=C2\CCC=CC2=O)c2ccccc21`, for which the IC50 came to 6.04 µM in the experiment on MCF7; 4.92 µM in the experiment with A549; 3370 nM in the experiment with MDA-MB-231 [1]; 4.96 µM in experiment [2]; 4420 nM with KB.
Take `COc1ccc(/C=C2\CCC=CC2=O)c(C)c1`: the half-inhibitory concentration (IC50) in the experiment with MCF7 was 1.84 µM; in the experiment with A549, 1.55 µM; with MDA-MB-231 [1], 1070 nM; in experiment [4] it was 460 nM; in experiment [2], 1.59 µM; in the experiment with KB it was 1310 nM. In addition, the result in the experiment on MDA-MB-231 [3] was Active.
In the case of `COc1cc(/C=C2\CN(S(C)(=O)=O)C=CC2=O)cc(OC)c1OC`, the figures for the concentration for half-maximal inhibition (IC50) in the experiment with MCF7, in the experiment on A549 and with MDA-MB-231 [1] were 17.6 µM, 18.7 µM and 15900 nM, respectively.
`COc1cc(/C=C2\CCC=CC2=O)cc2ccccc12`: the IC50 in the experiment on MCF7 was 3.6 µM; in the experiment with A549, 1.63 µM; in the experiment with MDA-MB-231 [1] it was 1630 nM; in experiment [2], 2.62 µM; in the experiment with KB, 1500 nM.
Regarding `COc1cc(/C=C2\CCC=CC2=O)cc(OC)c1`, the IC50 stood at 4.62 µM in the experiment on MCF7; 4.74 µM with A549; 600 nM in the experiment with MDA-MB-231 [1]; 4.87 µM in experiment [2]; 3630 nM with KB.
As to `COc1cccc(/C=C2\CCC=CC2=O)c1OC`, the IC50 was found to be 4.71 µM in the experiment on MCF7; 5.09 µM in the experiment with A549; 610 nM with MDA-MB-231 [1]; 5.22 µM in experiment [2]; 3850 nM with KB. In experiment [5], the “Ratio IC50” value was found to be 8.
In the experiment with MDA-MB-231 [1], `O=C1C=CCC/C1=C\c1ccccc1OC(F)(F)F` displayed an IC50 of 1010 nM.
Take `COc1cc(/C=C2\CN(S(=O)(=O)c3ccc(C)cc3)C=CC2=O)cc(OC)c1OC`: the results for the IC50 in the experiment on MCF7, with A549 and with MDA-MB-231 [1] were 19.2 µM, 20.2 µM and 22200 nM, respectively.
Consider `O=C1C=CCC/C1=C\c1ccc(-c2ccccc2)cc1`, for which the IC50 was 4.97 µM with MCF7; 3.67 µM in the experiment with A549; 680 nM in the experiment with MDA-MB-231 [1]; 4.84 µM in experiment [2]; 2320 nM with KB.
For the molecule `COc1cc(/C=C2\CCC=CC2=O)cc(OC)c1OC`, the IC50 in the experiment on MCF7 is 5.26 µM; in the experiment on A549, 4.25 µM; with MDA-MB-231 [1], 670 nM; in experiment [4], 110 nM; in experiment [2], 4.75 µM; with KB it was 880 nM. In the experiment on MDA-MB-231 [3], the outcome was Active.
As to `O=C1C=CCC/C1=C\c1ccc2c(c1)OCO2`, the IC50 in the experiment with MCF7 turned out to be 2.28 µM; with A549, 1.52 µM; in the experiment with MDA-MB-231 [1], 1650 nM; in experiment [2], 2.2 µM; with KB, 1660 nM.
In the same order, the values of `COc1cc(/C=C2\CCC=C(I)C2=O)cc(OC)c1OC` are 5.33 µM, 4.86 µM, 670 nM, 5.31 µM and 3670 nM.
In the same order, the values of `COc1ccc(/C=C2\CCC=CC2=O)cc1OC` are 5.23 µM, 4.68 µM, 640 nM, 5.38 µM and 900 nM.
Taken in the same sequence, the figures for `O=C1C=CCC/C1=C\c1cnc2ccccc2c1` were 5.25 µM, 4.45 µM, 640 nM, 5.38 µM and 920 nM.
On to `COc1cc(/C=C2\CN(S(=O)(=O)c3ccccc3)C=CC2=O)cc(OC)c1OC`, for which the values for the IC50 with MCF7, in the experiment with A549 and in the experiment with MDA-MB-231 [1] were greater than 25 µM, 22.4 µM and 23300 nM, respectively.
Consider `COc1cc(OC)c(/C=C2\CCC=CC2=O)c(OC)c1`, for which the IC50 in the experiment with MCF7 came to 9.08 µM; in the experiment on A549, 4.7 µM; in the experiment on MDA-MB-231 [1] it was 5070 nM; in experiment [2] it was 6.45 µM; in the experiment on KB, 5820 nM.
Taken in the same sequence, the figures for `COc1ccc(/C=C2\CCC=CC2=O)cc1` were 2.57 µM, 1.46 µM, 1620 nM, 2.93 µM and 1560 nM.
Taken in the same sequence, the figures for `CC(=O)n1cc(/C=C2\CCC=CC2=O)c2ccccc21` were 5.44 µM, 4.83 µM, 930 nM, 5.05 µM and 4460 nM.
`COc1cc(/C=C2\CNC=CC2=O)cc(OC)c1OC`: the figures for the IC50 with MCF7, with A549 and in the experiment with MDA-MB-231 [1] were greater than 25 µM, greater than 25 µM and greater than 25000 nM, respectively.

A word on the IC50: it is the concentration at which inhibition is half-maximal. A high value points to lower potency.
